Data as given in patent US20240252677A1, “ONE-COMPONENT DELIVERY SYSTEM FOR NUCLEIC ACIDS” (The Trustees of the University of Pennsylvania, priority 2021, published 2024).
Where two headings read alike, the source gives them in different places.

Assays:
BALB/c mice = conditions: cited from earlier work
[1] = pKa measurements of individual IAJD molecules by titration; type: physicochemical; conditions: ethanol saturated with NaCl, titrated with 0.1 M aqueous HCl, titration
Experimental: pKa measurements of individual IAJD Molecules was performed as follows. IAJD Molecules were first dissolved in ethanol (Sat. with NaCl) at a concentration of 1.5 mg/mL and the solution volume was 3 mL.
Then 0.1 M HCl solution was added to the above ethanol solution with an increment of 7.5 μL. The resulting pH after each addition of HCl solution was measured by an Thermo Scientific Orion Star A121 meter with Thermo Scientific Orion 8220BNWP pH probe. pKa was determined using the half equivalence point titration.

[2] = Serum stability of DNPs, dimensions in 1% fetal bovine serum by DLS; type: physicochemical
Experimental: Sample preparation: injected 25 μL ethanol stock solution of IAJD125/155 (80 mg/mL) into the mixture of 462.5 μL acetate buffer (10 mM, pH 4.0) and 12.5 μL Luc-mRNA (4.0 mg/mL in water), followed by vortex for 5 seconds.
Final composition of DNP solution: IAJD125/155 (4.0 mg/mL)+Luc-mRNA (0.1 mg/mL) in 500 μL acetate buffer. The dimension of assemblies in solution was checked by DLS.
DNPs in 1% Serum: Serum (5.5 μL)+[500 μL solution of IAJD (4.0 mg/mL) and Luc-mRNA (0.1 mg/mL].

[3] = Table 18, symmetric IAJDs, results available in the literature
[4] = Table 20, corresponding symmetric IAJDs (literature per Table 18)
[5] = Table 15, individual IAJD molecule
[6] = DNPs in acetate buffer (pH 4.0), no serum, IAJD 4.0 mg/mL + Luc-mRNA 0.1 mg/mL

Row | pKa [1, 5] | pKa ([1]; individual IAJD molecules) | SMILES | In vivo activity (total flux, p/s) (BALB/c mice; [3]) | also measured
1 | – | 6.48 | CCCCCCCCCCCCCCCCCCOc1cc(COC(=O)CCCN2CCN(CCO)CC2)cc(OCCCCCCCCCCCCCCC)c1 [IAJD 154, 3-(Octadecyloxy)-5-(pentadecyloxy)benzyl 4-(4-(2-hydroxyethyl)piperazin-1-yl)butanoate] | – | –
2 | – | 7.4 | CCCCCCCCCCCOc1cc(COC(=O)c2cc(OCCOCCOCCCC(=O)CCCN3CCCCC3)c(OCCOCCOCCOCc3ccccc3)c(OCCOCCOCCOC(=O)CCCN3CCCCC3)c2)cc(OCC(CC)CCCC)c1 (centres unmarked) [IAJD 155] | – | PDI ([2]; DNPs in 1% Serum, t = 0 min): 0.186; Size (nm) ([2]; DNPs in 1% Serum, t = 0 min): 93 nm; PDI ([2]; DNPs in 1% Serum, t = 10 min): 0.171; Size (nm) ([2]; DNPs in 1% Serum, t = 10 min): 101 nm; PDI ([2]; DNPs in 1% Serum, t = 20 min): 0.186; Size (nm) ([2]; DNPs in 1% Serum, t = 20 min): 105 nm; PDI ([2]; DNPs in 1% Serum, t = 30 min): 0.173; Size (nm) ([2]; DNPs in 1% Serum, t = 30 min): 107 nm; PDI ([2]; DNPs in 1% Serum, t = 40 min): 0.161; Size (nm) ([2]; DNPs in 1% Serum, t = 40 min): 108 nm; PDI ([2]; DNPs in 1% Serum, t = 50 min): 0.174; Size (nm) ([2]; DNPs in 1% Serum, t = 50 min): 111 nm; PDI ([2]; DNPs in 1% Serum, t = 60 min): 0.149; Size (nm) ([2]; DNPs in 1% Serum, t = 60 min): 108 nm; PDI [2, 6]: 0.256; Size (nm) [2, 6]: 83 nm
3 | – | 7.43 | CCCCCCCCCCCCCCOc1cc(COC(=O)c2cc(OCCOCCOCCCC(=O)CCCN3CCCCC3)c(OCCOCCOCCOCc3ccccc3)c(OCCOCCOCCOC(=O)CCCN3CCCCC3)c2)cc(OCCCCCCCCCCC)c1 [IAJD 156] | – | –
4 | – | 7.42 | CCCCCCCCCCCCCCCOc1cc(COC(=O)c2cc(OCCOCCOCCCC(=O)CCCN3CCCCC3)c(OCCOCCOCCOCc3ccccc3)c(OCCOCCOCCOC(=O)CCCN3CCCCC3)c2)cc(OCCCCCCCCCCC)c1 [IAJD 157] | – | –
5 | – | 7.38 | CCCCCCCCCCCCCCCCCOc1cc(COC(=O)c2cc(OCCOCCOCCCC(=O)CCCN3CCCCC3)c(OCCOCCOCCOCc3ccccc3)c(OCCOCCOCCOC(=O)CCCN3CCCCC3)c2)cc(OCCCCCCCCCCC)c1 [IAJD 158] | – | –
6 | – | 7.4 | CCCCCCCCCCCCCCCCCOc1cc(CNC(=O)c2cc(OCCOCCOCCOC(=O)CCCN3CCCCC3)c(OCCCOCOCCOCc3ccccc3)c(OCCOCCOCCOC(=O)CCCN3CCCCC3)c2)cc(OCCCCCCCCCCCCCCCCC)c1 [IAJD 159] | – | –
7 | – | 6.38 | CCCCCCCCCCCCCOc1cc(COC(=O)CCCN2CCN(C)CC2)cc(OCC(CC)CCCC)c1 (centres unmarked) [IAJD 161, 3-((2-Ethylhexyl)oxy)-5-(tridecyloxy)benzyl 4-(4-methylpiperazin-1-yl)butanoate] | – | –
8 | – | 6.33 | CCCCCCCCCCCCCOc1cc(COC(=O)CCCN2CCN(CCO)CC2)cc(OCC(CC)CCCC)c1 (centres unmarked) [IAJD 162, 3-((2-Ethylhexyl)oxy)-5-(tridecyloxy)benzyl 4-(4-(2-hydroxyethyl)piperazin-1-yl)butanoate] | – | –
9 | – | 6.16 | CCCCCCCCCCCCCCOc1cc(COC(=O)CCCN2CCN(C)CC2)cc(OCCCCCCCCCCCCC)c1 [IAJD 171, 3-(Tetradecyloxy)-5-(tridecyloxy)benzyl 4-(4-methylpiperazin-1-yl)butanoate] | – | –
10 | – | 6.03 | CCCCCCCCCCCCCCOc1cc(COC(=O)CCCN2CCN(CCO)CC2)cc(OCCCCCCCCCCCCC)c1 [IAJD 172, 3-(Tetradecyloxy)-5-(tridecyloxy)benzyl 4-(4-(2-hydroxyethyl)piperazin-1-yl)butanoate] | – | –
11 | – | 5.91 | CCCCCCCCCCCCCCCCOc1cc(COC(=O)CCCN2CCN(C)CC2)cc(OCCCCCCCCCCCCC)c1 [IAJD 173, 3-(Hexadecyloxy)-5-(tridecyloxy)benzyl 4-(4-methylpiperazin-1-yl)butanoate] | – | –
12 | – | 5.9 | CCCCCCCCCCCCCCCCCCOc1cc(COC(=O)CCCN2CCN(C)CC2)cc(OCCCCCCCCCCCCC)c1 [IAJD 177, 3-(Octadecyloxy)-5-(tridecyloxy)benzyl 4-(4-methylpiperazin-1-yl)butanoate] | – | –
13 | – | 5.97 | CCCCCCCCCCCCCCCCCCOc1cc(COC(=O)CCCN2CCN(CCO)CC2)cc(OCCCCCCCCCCCCC)c1 [IAJD 178, 3-(Octadecyloxy)-5-(tridecyloxy)benzyl 4-(4-(2-hydroxyethyl)piperazin-1-yl)butanoate] | – | –

More lines, now with the values behind:

Row | SMILES | pKa [1, 5] | pKa ([1]; individual IAJD molecules) | In vivo activity (total flux, p/s) (BALB/c mice; [3]) | also measured
14 | CCCCCCCCCCCCCCOc1cc(COC(=O)CCCN2CCN(C)CC2)cc(OCCCCCCCCCCCCCC)c1 [IAJD 74, 3,5-Bis(tetradecyloxy)benzyl 4-(4-methylpiperazin-1-yl)butanoate] | 6.32 | – | 1.71 × 10^7 p/s | In vivo activity (total flux, p/s) (BALB/c mice; [4]): 1.71 × 10^7 p/s
15 | CCCCCCCCCCCCCCCCOc1cc(COC(=O)CCCN2CCN(C)CC2)cc(OCCCCCCCCCCCCCCCC)c1 [IAJD 75, 3,5-Bis(hexadecyloxy)benzyl 4-(4-methylpiperazin-1-yl)butanoate] | 6.22 | – | 3.37 × 10^7 p/s | In vivo activity (total flux, p/s) (BALB/c mice; [4]): 3.37 × 10^7 p/s
16 | CCCCC(CC)COc1cc(COC(=O)CCCN2CCN(C)CC2)cc(OCC(CC)CCCC)c1 (centres unmarked) [IAJD 76, 3,5-Bis((2-ethylhexyl)oxy)benzyl 4-(4-methylpiperazin-1-yl)butanoate] | 6.28 | – | 7.81 × 10^7 p/s | –
17 | CCCCCCCCCOc1cc(COC(=O)CCCN2CCN(C)CC2)cc(OCCCCCCCCC)c1 [IAJD 77, 3,5-Bis(nonyloxy)benzyl 4-(4-methylpiperazin-1-yl)butanoate] | 6.4 | – | 2.44 × 10^6 p/s | –
18 | CCCCC(CC)COc1cc(COC(=O)CCCN2CCN(CCO)CC2)cc(OCC(CC)CCCC)c1 (centres unmarked) [IAJD 87, 3,5-Bis((2-ethylhexyl)oxy)benzyl 4-(4-(2-hydroxyethyl)piperazin-1-yl)butanoate] | 6.49 | – | 3.24 × 10^7 p/s | In vivo activity (total flux, p/s) (BALB/c mice; [4]): 3.24 × 10^7 p/s
19 | CCCCCCCCOc1cc(COC(=O)CCCN2CCN(C)CC2)cc(OCCCCCCCC)c1 [IAJD 88, 3,5-Bis(octyloxy)benzyl 4-(4-methylpiperazin-1-yl)butanoate] | 6.28 | – | 2.34 × 10^6 p/s | –
20 | CCCCCCCCOc1cc(COC(=O)CCCN2CCN(CCO)CC2)cc(OCCCCCCCC)c1 [IAJD 89] | 6.45 | – | 5.92 × 10^7 p/s | –
21 | CCCCCCCCCCOc1cc(COC(=O)CCCN2CCN(CCO)CC2)cc(OCCCCCCCCCC)c1 [IAJD 91, 3,5-Bis(decyloxy)benzyl 4-(4-(2-hydroxyethyl)piperazin-1-yl)butanoate] | 6.48 | – | 9.94 × 10^6 p/s | –
22 | CCCCCCCCCCCCCCCCCCOc1cc(COC(=O)CCCN2CCN(C)CC2)cc(OCCCCCCCCCCCCCCCCCC)c1 [IAJD 98, 3,5-Bis(octadecyloxy)benzyl 4-(4-methylpiperazin-1-yl)butanoate] | 6.25 | – | 2.06 × 10^6 p/s | In vivo activity (total flux, p/s) (BALB/c mice; [4]): 2.06 × 10^6 p/s
23 | CCCCCCCCCCCCCCOc1cc(COC(=O)CCCN2CCN(CCO)CC2)cc(OCCCCCCCCCCC)c1 [IAJD 125, 3-(Tetradecyloxy)-5-(undecyloxy)benzyl 4-(4-(2-hydroxyethyl)piperazin-1-yl)butanoate] | – | 6.64 | – | PDI ([2]; DNPs in 1% Serum, t = 0 min): 0.234; Size (nm) ([2]; DNPs in 1% Serum, t = 0 min): 207 nm; PDI ([2]; DNPs in 1% Serum, t = 10 min): 0.290; Size (nm) ([2]; DNPs in 1% Serum, t = 10 min): 206 nm; PDI ([2]; DNPs in 1% Serum, t = 20 min): 0.303; Size (nm) ([2]; DNPs in 1% Serum, t = 20 min): 199 nm; PDI ([2]; DNPs in 1% Serum, t = 30 min): 0.256; Size (nm) ([2]; DNPs in 1% Serum, t = 30 min): 197 nm; PDI ([2]; DNPs in 1% Serum, t = 40 min): 0.284; Size (nm) ([2]; DNPs in 1% Serum, t = 40 min): 200 nm; PDI ([2]; DNPs in 1% Serum, t = 50 min): 0.339; Size (nm) ([2]; DNPs in 1% Serum, t = 50 min): 190 nm; PDI ([2]; DNPs in 1% Serum, t = 60 min): 0.258; Size (nm) ([2]; DNPs in 1% Serum, t = 60 min): 194 nm; PDI [2, 6]: 0.273; Size (nm) [2, 6]: 196 nm
24 | CCCCCCCCCCCCCCCOc1cc(COC(=O)CCCN2CCN(CCO)CC2)cc(OCCCCCCCCCCCCCC)c1 [IAJD 148, 3-(Pentadecyloxy)-5-(tetradecyloxy)benzyl 4-(4-(2-hydroxyethyl)piperazin-1-yl)butanoate] | – | 6.65 | – | –
25 | CCCCCCCCCCCCCCCCOc1cc(COC(=O)CCCN2CCN(C)CC2)cc(OCCCCCCCCCCCCCCC)c1 [IAJD 149, 3-(Hexadecyloxy)-5-(pentadecyloxy)benzyl 4-(4-methylpiperazin-1-yl)butanoate] | – | 6.5 | – | –
26 | CCCCCCCCCCCCCCCCOc1cc(COC(=O)CCCN2CCN(CCO)CC2)cc(OCCCCCCCCCCCCCCC)c1 [IAJD 150, 3-(Hexadecyloxy)-5-(pentadecyloxy)benzyl 4-(4-(2-hydroxyethyl)piperazin-1-yl)butanoate] | – | 6.65 | – | –
27 | CCCCCCCCCCCCCCCCCOc1cc(COC(=O)CCCN2CCN(C)CC2)cc(OCCCCCCCCCCCCCCC)c1 [IAJD 151, 3-(Heptadecyloxy)-5-(pentadecyloxy)benzyl 4-(4-methylpiperazin-1-yl)butanoate] | – | 6.39 | – | –
28 | CCCCCCCCCCCCCCCCCOc1cc(COC(=O)CCCN2CCN(CCO)CC2)cc(OCCCCCCCCCCCCCCC)c1 [IAJD 152, 3-(Heptadecyloxy)-5-(pentadecyloxy)benzyl 4-(4-(2-hydroxyethyl)piperazin-1-yl)butanoate] | – | 6.65 | – | –
29 | CCCCCCCCCCCCCCCCCCOc1cc(COC(=O)CCCN2CCN(C)CC2)cc(OCCCCCCCCCCCCCCC)c1 [IAJD 153, 3-(Octadecyloxy)-5-(pentadecyloxy)benzyl 4-(4-methylpiperazin-1-yl)butanoate] | – | 6.42 | – | –
